Key:
[1] = test system: all other 5-HT receptor subtypes; assay: affinity for the other 5-HT receptor subtypes; assay type: binding; settings: 5-HT2B versus all other 5-HT subtypes, except 5-HT1A
[2] = target: more than 51 receptors including GPCRs, ion channels and receptor tyrosine kinases; assay: panel of more than 51 receptors; assay type: binding; settings: almost no affinity, read-out: Ki, more than 51 receptors tested
dopamine D3 receptor = dopamine D3 receptor (Homo sapiens, UniProt P35462); assay: dopamine D3 receptor affinity; assay type: binding; settings: moderate activity
Sequence of dopamine D3 receptor (P35462 whole entry, species assumed): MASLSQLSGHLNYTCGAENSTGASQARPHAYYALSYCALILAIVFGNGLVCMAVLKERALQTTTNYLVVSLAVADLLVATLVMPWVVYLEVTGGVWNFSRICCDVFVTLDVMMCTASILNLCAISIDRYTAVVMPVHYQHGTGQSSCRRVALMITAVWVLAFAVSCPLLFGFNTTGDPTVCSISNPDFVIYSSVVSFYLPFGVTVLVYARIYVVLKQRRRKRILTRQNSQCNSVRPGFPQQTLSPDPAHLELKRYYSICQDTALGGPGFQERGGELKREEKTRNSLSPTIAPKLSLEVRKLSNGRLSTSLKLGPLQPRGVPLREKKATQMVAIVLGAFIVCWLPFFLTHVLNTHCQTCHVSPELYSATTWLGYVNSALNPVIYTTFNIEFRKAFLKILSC

dopamine D2 receptor = dopamine D2 receptor (Homo sapiens, UniProt P14416); assay: dopamine D2 receptor antagonism; assay type: biochemical; settings: weak antagonist
Sequence of dopamine D2 receptor (P14416 whole entry, species assumed): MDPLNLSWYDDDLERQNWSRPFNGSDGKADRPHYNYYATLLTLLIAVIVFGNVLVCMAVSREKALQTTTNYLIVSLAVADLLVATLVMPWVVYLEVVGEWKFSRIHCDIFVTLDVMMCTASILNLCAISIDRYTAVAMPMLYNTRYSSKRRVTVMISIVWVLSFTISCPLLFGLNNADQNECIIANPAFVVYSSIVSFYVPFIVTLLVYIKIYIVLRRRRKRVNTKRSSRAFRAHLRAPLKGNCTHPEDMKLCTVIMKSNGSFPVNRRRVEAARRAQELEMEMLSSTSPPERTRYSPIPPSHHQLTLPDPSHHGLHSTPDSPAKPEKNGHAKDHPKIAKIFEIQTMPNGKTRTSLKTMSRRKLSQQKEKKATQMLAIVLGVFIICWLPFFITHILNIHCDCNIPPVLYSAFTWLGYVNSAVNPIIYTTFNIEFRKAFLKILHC

dopamine D1 receptor = dopamine D1 receptor (Homo sapiens, UniProt P21728); assay: dopamine D1 receptor activity; assay type: binding; settings: no activity
Sequence of dopamine D1 receptor (P21728 whole entry): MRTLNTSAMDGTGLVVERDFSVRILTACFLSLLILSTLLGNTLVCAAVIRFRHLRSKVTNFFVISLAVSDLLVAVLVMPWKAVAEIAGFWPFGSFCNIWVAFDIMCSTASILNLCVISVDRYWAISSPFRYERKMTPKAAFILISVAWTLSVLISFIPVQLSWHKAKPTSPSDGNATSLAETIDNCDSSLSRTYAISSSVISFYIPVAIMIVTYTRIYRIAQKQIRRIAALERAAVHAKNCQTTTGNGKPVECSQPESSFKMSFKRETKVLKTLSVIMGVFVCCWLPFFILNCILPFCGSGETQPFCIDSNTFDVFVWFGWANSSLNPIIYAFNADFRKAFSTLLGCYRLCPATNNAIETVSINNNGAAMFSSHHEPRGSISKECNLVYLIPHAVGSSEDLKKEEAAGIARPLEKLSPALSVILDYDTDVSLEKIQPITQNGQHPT

dopamine D5 receptor = dopamine D5 receptor (Homo sapiens, UniProt P21918); assay: dopamine D5 receptor activity; assay type: binding; settings: no activity
Sequence of dopamine D5 receptor (P21918 whole entry): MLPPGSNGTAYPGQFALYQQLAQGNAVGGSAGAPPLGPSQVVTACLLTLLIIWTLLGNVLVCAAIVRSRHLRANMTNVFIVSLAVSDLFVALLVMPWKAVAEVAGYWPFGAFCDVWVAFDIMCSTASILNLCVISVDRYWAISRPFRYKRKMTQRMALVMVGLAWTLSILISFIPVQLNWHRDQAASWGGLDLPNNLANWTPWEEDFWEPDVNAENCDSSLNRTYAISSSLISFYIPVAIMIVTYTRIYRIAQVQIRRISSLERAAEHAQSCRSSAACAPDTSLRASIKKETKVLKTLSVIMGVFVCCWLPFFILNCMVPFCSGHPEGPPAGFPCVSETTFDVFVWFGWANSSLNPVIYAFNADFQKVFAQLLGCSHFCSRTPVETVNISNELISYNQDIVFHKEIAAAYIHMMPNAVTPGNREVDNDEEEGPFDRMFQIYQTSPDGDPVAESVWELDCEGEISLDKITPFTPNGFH

σ1 receptor = σ1 receptor (Homo sapiens, UniProt Q99720); assay: σ1 receptor binding; settings: moderate binding
Sequence of σ1 receptor (Q99720 whole entry): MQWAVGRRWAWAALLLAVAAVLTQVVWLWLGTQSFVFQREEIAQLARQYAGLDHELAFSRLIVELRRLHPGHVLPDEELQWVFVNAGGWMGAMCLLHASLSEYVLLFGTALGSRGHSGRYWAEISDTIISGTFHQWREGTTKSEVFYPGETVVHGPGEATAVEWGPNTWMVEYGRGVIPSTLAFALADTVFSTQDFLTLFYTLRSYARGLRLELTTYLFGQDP

σ2 receptor = σ2 receptor (Homo sapiens, UniProt Q5BJF2); assay: σ2 receptor binding; settings: moderate binding
Sequence of σ2 receptor (Q5BJF2 whole entry): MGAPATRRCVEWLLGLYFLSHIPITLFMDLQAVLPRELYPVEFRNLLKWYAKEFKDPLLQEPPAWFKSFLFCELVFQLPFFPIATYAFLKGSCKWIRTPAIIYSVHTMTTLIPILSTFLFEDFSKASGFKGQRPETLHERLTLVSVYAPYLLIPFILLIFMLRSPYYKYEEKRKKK

σ receptors = assay: σ receptor functional assays (agonist activity); assay type: biochemical; settings: very weak agonist
[3] = test system: rat activated hepatic myofibroblasts; assay: acridine orange assay for morphological assessment of apoptosis; assay type: cell-based; settings: 1 μM dose
Experimental: The compound 5-((4-(6-chlorothieno[2,3-d]pyrimidin-4-ylamino)piperidin-1-yl)methyl)-2-fluorobenzonitrile (hereinafter “compound A”), was evaluated for activity in promoting apoptosis of rodent and human activated hepatic myofibroblasts. The activity of compound A was compared against untreated cells, cells treated with dimethylsulfoxide, and cells treated with spiperone. Spiperone is a nonselective 5-HT2B antagonist. In the acridine orange assay for morphological assessment of apoptosis, compound A dose-dependently promotes elevated rates of apoptosis of rat activated hepatic myofibroblasts (40% of cells apoptotic with 1 μM dose). The results of the acridine orange assay are depicted in FIGS. 1-4.

[4] = test system: human activated hepatic myofibroblasts (primary activated hepatic stellate cells); assay: apoptosis of human activated hepatic myofibroblasts; assay type: cell-based; settings: overnight incubation
Experimental: Compound A was tested on human activated hepatic myofibroblasts. The tested human cells were primary activated hepatic stellate cells isolated from normal human liver resected during removal of adjacent tumour tissue in patients with primary liver cancer. The cells were then cultured on plastic in full media and passaged at least 4 times to generate pure activated activated hepatic stellate cells, representing the major fibrogenic cell of the liver.

[5] = test system: Caspase 3/7 activity in rat activated hepatic stellate cells; assay: Caspase-Glo 3/7 assay in rHSC; assay type: cell-based; settings: FIG. 7
Experimental: Compound A was evaluated for activity in inducing Caspase 3/7 activity. Caspase 3 is involved in regulating apoptosis, and increases in Caspase 3 activity in this assay correlate to increased levels of apoptosis.
General Procedure: The assay was performed based on the following protocol: • 1. Passage rHSC at an appropriate density on a 96 well format and allow to adhere overnight. • 2. Treat cells with inhibitors for an appropriate length of time including the relevant controls. • 3. Allow both buffer and substrate to reach room temperature. • 4. Immediately prior to use, resuspend the substrate in 2.5 mL of buffer and mix thoroughly. • 5. Remove cells from incubator and allow the plates to cool to room temperature. • 6. Add Caspase-Glo® reagent at a 1:1 ratio (i.e. 100 μL to 100 μL media) and shake at 300 rpm for 30 sec. • 7. Incubate cells with Caspase-Glo® reagent for 2 h at room temperature protected from light. • 8. Transfer all media to white walled luciferase plates and determined luminescence using the MicroBeta luminometer. • 9. Caspase activity is expressed as fold-change relative to the untreated control.
Caspase-Glo® 3/7 reagent is available from Promega (Calif., USA). The Caspase-Glo® reagent contains a DEVD-caspase substrate which is selectively cleaved by caspase enzymes 3 and 7. […]

[6] = test system: lung lesions induced by monocrotaline (MCT); assay: monocrotaline (MCT) model, lung lesion scoring; assay type: in vivo
Experimental: (§1) Compound A was assayed for effects on lung and liver lesions, as well as liver fibrosis in animals suffering from liver fibrosis induced by monocrotaline (MCT).
(§2) General Procedure: In this assay, animals were treated with MCT/vehicle, MCT with phosphate-buffered saline (PBS), or MCT with compound A. Following treatment, animals were sacrificed, and lung tissue was perfused and fixed in 10% neutral buffered formalin via the trachea. Lung and liver tissue was removed, sectioned and stained with hematoxylin-eosin. 41 liver and 41 lung slides were obtained for histologic evaluation. All slides were scored blindly without knowledge of experimental conditions. Lung and liver slides were evaluated according to the criteria listed below. Each parameter was subjectively evaluated and scored from 0-5, with 0 being no discernable lesions and 5 indicating the most severe lesions. Final scores for both the liver and lung lesions were calculated by averaging all parameters for each individual tissue.
• 1. Alveolar edema • 2. Congestion • 3. Intra-alveolar hemorrhage • 4. Alveolar macrophage infiltrate • 5. Degree of erythrophagocytosis • 6. Degree of hemosiderosis • 7. Thickening of alveolar septa • 8. Type II pneumocyte hyperplasia • 9. General arterial thickening • 10. Thickening of tunica intima • 11. Thickening of tunica media • 12. Thickening of tunica adventitia • 13. Degree of perivascular edema. • 14. Perivascular inflammatory cells (lymphs and plasma cells) • 15. Increased BALT • 16. Endothelial reactivity and prominence.

[7] = test system: liver lesions induced by monocrotaline (MCT); assay: monocrotaline (MCT) model, liver lesion scoring; assay type: in vivo; settings: for liver lesion severity score compared to Vehicle+PBS control: p<0.05
Experimental: as §1, §2
(§3) • 1. Capsular fibrin • 2. Interlobular fibrosis • 3. Zone 1, 2, 3 necrosis • 4. Central vein, portal vein necrosis • 5. Sinusoidal spaces (hepatocytes dropout) • 6. Spaces of Disse • 7. Bile duct • 8. Bile caniliculi • 9. Kupffer cells • 10. Hepatocyte appositional surfaces • 11. Cell and nuclear size variation • 12. Cytoplasm variation

[8] = test system: liver fibrosis induced by monocrotaline (MCT); assay: monocrotaline (MCT) model, hepatic fibrosis analysis; assay type: in vivo
Experimental: as §1, §2, §3
There were varying degrees of myofibroblast proliferation and collagen deposition surrounding portal tracts with occasional bridging into zones two and three. Bile duct proliferation was occasionally associated with areas of fibrosis.

Compound: N#Cc1cc(CN2CCC(Nc3ncnc4sc(Cl)cc34)CC2)ccc1F [compound A, 5-((4-(6-Chlorothieno[2,3-d]pyrimidin-4-ylamino)piperidin-1-yl)methyl)-2-fluorobenzonitrile]
- differences in receptor affinities compared with all other 5-HT receptor subtypes [1]: more than 500 fold
- Ki [2]: > 1 µM
- Ki (dopamine D3 receptor): ~0.31 µM
- IC50 (dopamine D2 receptor): 0.67 µM
- Ki (dopamine D1 receptor): > 5 µM
- Ki (dopamine D5 receptor): > 5 µM
- Ki (σ1 receptor): 0.1 µM
- Ki (σ2 receptor): 0.11 µM
- EC50 (σ receptors): ~10 µM
- cells apoptotic [3]: 40%
- apoptosis ([4]; 1 μM): 20%
- apoptosis ([4]; 100 μM): 60%
- Caspase activity (fold-change relative to the untreated control) [5]: increased Caspase activity in a time-dependent fashion
- lung lesion score versus Vehicle+MCT group ([6]; 50 mg/kg + MCT, p=0.09): lower lesion score
- lung lesion score versus Vehicle+MCT group ([6]; 100 mg/kg + MCT, p<0.01, similar to Vehicle+PBS group): reduced in severity
- MCT-induced pulmonary lesion, histology (FIG. 11) ([6]; MCT + 50 mg/kg, Part B): improvement of MCT-induced pulmonary lesion
- MCT-induced pulmonary lesions, histology (FIG. 11) ([6]; MCT + 100 mg/kg, Part C, compared to Part B): further reduction of MCT-induced pulmonary lesions
- liver lesion severity score compared to Vehicle+PBS control ([7]; 50 mg/kg + MCT): significant increase
- liver lesion severity score compared to Vehicle+PBS control ([7]; 100 mg/kg + MCT): significant increase
- periportal necrosis, histology (FIG. 11) ([7]; MCT + 50 mg/kg, Part B compared to Part A (vehicle + MCT)): slightly reduced
- periportal necrosis, histology (FIG. 11) ([7]; MCT + 100 mg/kg, Part C): further reduction of periportal necrosis
- sinusoidal cells with small, condensed nuclei (may represent apoptotic stellate cells) ([7]; groups receiving 50 mg/kg and 100 mg/kg): Moderate numbers
- degree of periportal fibrosis ([8]; monocrotaline + 50 mg/kg): minimal to mild fibrosis
- livers with periportal fibrosis ([8]; monocrotaline + 50 mg/kg, 4 out of 8 livers): 50%
- degree of periportal fibrosis ([8]; monocrotaline + 100 mg/kg): negligible-very minimal (1 small triad) fibrosis
- livers with periportal fibrosis ([8]; monocrotaline + 100 mg/kg, 1 out of 13 livers): 7%
